In US8829028B2, “5-HT4 receptor antagonists for the treatment of heart failure” (Serodus AS, priority 2002, dated 2014):

Legend:
5-HT4 receptor [1] = target: T1, 5-HT4 receptor (Rattus norvegicus, UniProt Q62758); test: Antagonism of the serotonin inotropic response by 5-HT4 antagonists in post-MI rat papillary muscle (reversal, curve shift, Schild Kb); format: cell-based
T1 construct: The papillary muscles were mounted in organ baths; from tissue; host or cells: rat posterior left ventricular papillary muscle (post-MI or aortic-banding heart failure)
Method: The muscles were field stimulated with alternating polarity at 1 Hz with impulses of 5 msec duration and current about 20% above individual threshold (10-15 mA, determined in each experiment). The isometrically contracting muscles were stretched to the maximum of their length-tension curve. The force was recorded and analysed as previously described (Skomedal et al., 1997, J. Pharmacol. Exp. Ther. 280: 721-729). The muscles were allowed to equilibrate for 90 minutes. […] Averaged contraction-relaxation cycles (CRC) were calculated for different experimental periods, and these cycles were used to determine descriptive parameters like maximal development of force (dF/dt)max, time to peak force (TPF) and time to relaxation to 20% level (TR2O). Relaxation time (RT) was calculated as TR2O-TPF. (dF/dt)max was used as an index of contractility. Inotropic responses induced by agonists were expressed by increase in (dF/dt)max. RT was used as index of relaxation. Lusitropic responses were expressed as reduction in RT. Mechanical response at the end of the equilibrium period was used as the control response.
Agonist was added cumulatively or as a single bolus directly to the organ baths and was completely mixed in the solution within 2-3 seconds. […] The different agonists were added directly to the organ baths in increasing concentrations until supramaximal concentrations of agonist were obtained with respect to maximal inotropic response.
The responses for each concentration of agonist were generally calculated as percent of maximal response. The concentration-response curves constructed from papillary muscle experiment were constructed according to Ariens and Simonis (1964, supra), by estimating centiles (EC10 to EC100) for each single experiment and calculating the corresponding means. This calculation provides mean curves that express the response as fractional response or percent of maximum and display horizontal positioning and the correct mean slope of the curves. The horizontal positioning of the concentration-response curves was expressed as pEC50-values (=−log EC50). Data are expressed as mean±standard error of the mean (SEM) and the number of animals expressed as n. The significance levels of differences were calculated according to Students t-test. P<0.05 is considered statistically significant. The inhibition constants Kb were calculated from the Schild equation, based on the relative shifts of the concentration-response curves for receptor stimulation.

5-HT4 receptor [2] = target: T1, 5-HT4 receptor; test: 5-HT4 receptor-mediated inotropic response in papillary muscle of CHF rat 6 weeks after aortic banding; format: cell-based; conditions: 1 μM GR113808 after 10 μM serotonin
Method: Trans-aortic constriction (aortic banding) of the ascending aorta was induced in 200 g male Wistar rats under anaesthesia, induced by 63% N2O, 32% O2 and 5% Isoflurane and maintained by 66% N2O, 33% O2 and 1-2% Isoflurane. A right-sided thoracotomi was performed through a 3-4 cm long cutaneous incision, the pericardium was opened and the ascending aorta identified and dissected free of surrounding tissue. A ligature was knit around the ascending aorta and a metal probe with diameter 0.9 mm. The metal probe was then removed. The result was a constriction of the ascending aorta with internal diameter about 0.9 mm. The thorax was then closed with 3-0 silk sutures and the skin closed with Dexon 1 sutures. […]
Papillary muscle was extracted from a CHF rat 6 weeks after aortic banding as described above. osterior left ventricular papillary muscle was prepared, mounted in organ bath, equilibrated and field stimulated at 1 Hz (Sjaastad et al. 2003 supra), and the contraction-relaxation cycles (CRCs) were recorded and analysed as previously described (Skomedal et al. 1997, J. Pharmacol Exp Ther 280: 721-729) (Sjaastad et al., 2003, supra) with respect to maximal developed force (Fmax), maximal development of force (dF/dt)max, time to peak force (TPF), time to relaxation to 20% level (TR20) and relaxation time (RT=TR20-TPF).

5-HT4 receptor [3] = target: T2, 5-HT4 receptor (Homo sapiens, UniProt Q13639); conditions: Gale et al., 1994; cited from earlier work
5-HT4 receptor [4] = target: T2, 5-HT4 receptor; test: Inotropic response in trabecular muscle from explanted post-infarct human heart; format: cell-based; set-up: Trabecular muscles were prepared, mounted in organ baths; from tissue; host or cells: trabecular muscle from explanted human hearts (post-infarct; dilated cardiomyopathy); conditions: 1 μM GR113808 after 10 μM serotonin
Method: The heart was explanted from a patient who had survived a small myocardial infarction and died in hospital from subarachnoidal haemorrhage. Trabecular muscles were prepared, mounted in organ baths, equilibrated and field stimulated at 1 Hz (Skomedal et al., 1997, supra) and the contraction-relaxation cycles (CRCs) were recorded and analysed as previously described (Skomedal et al., 1997, supra) with respect to maximal developed force (Fmax), maximal development of force (dF/dt)max, time to peak force (TPF), time to relaxation to 20% level (TR20) and relaxation time (RT=TR20-TPF).

5-HT4 receptor [5] = target: T2, 5-HT4 receptor; test: Inotropic response in trabecular muscle from explanted human heart with dilated cardiomyopathy (IBMX present); format: cell-based; set-up: Trabecular muscles were prepared, mounted in organ baths; from tissue; host or cells: trabecular muscle from explanted human hearts (post-infarct; dilated cardiomyopathy); conditions: 1 μM GR113808 after 10 μM serotonin; IBMX 35 μM

T2 sequence (Q13639 whole entry): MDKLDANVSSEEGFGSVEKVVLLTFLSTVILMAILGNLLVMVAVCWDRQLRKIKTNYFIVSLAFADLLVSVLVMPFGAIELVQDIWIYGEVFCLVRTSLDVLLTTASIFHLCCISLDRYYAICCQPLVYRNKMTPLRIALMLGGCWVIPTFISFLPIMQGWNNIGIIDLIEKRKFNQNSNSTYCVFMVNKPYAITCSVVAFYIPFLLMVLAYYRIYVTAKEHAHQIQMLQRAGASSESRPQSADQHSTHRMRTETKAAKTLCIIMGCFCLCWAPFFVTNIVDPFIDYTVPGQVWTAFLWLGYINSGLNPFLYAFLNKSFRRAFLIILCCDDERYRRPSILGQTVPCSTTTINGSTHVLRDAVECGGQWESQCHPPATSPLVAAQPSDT
T1 sequence (Q62758 whole entry): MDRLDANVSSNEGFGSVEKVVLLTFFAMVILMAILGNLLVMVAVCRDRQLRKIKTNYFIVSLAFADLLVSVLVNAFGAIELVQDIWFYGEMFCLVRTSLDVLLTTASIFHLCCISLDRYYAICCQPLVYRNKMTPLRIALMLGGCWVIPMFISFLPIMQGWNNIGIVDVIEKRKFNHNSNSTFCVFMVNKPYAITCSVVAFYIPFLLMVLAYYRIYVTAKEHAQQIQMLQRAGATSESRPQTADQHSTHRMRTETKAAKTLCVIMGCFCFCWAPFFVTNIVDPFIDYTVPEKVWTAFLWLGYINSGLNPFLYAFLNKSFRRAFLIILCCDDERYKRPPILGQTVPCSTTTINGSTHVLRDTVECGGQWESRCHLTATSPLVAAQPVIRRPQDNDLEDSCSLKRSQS

In the case of Cn1cc(C(=O)OCC2CCN(CCNS(C)(=O)=O)CC2)c2ccccc21 [GR113808, {1-[2-(methyl-sulphonylamino)ethyl]-4-piperidinyl}methyl 1-methyl-1H-indole-3-carboxylate], the Kb (5-HT4 receptor [1]) is reported as 0.5 nM, the “reversal of the inotropic response evoked by 10 μmol/l serotonin” value (5-HT4 receptor [1]) is reported as “completely reversed” and the “reversal of the serotonin-induced shortening of the contraction-relaxation cycles” value (5-HT4 receptor [1]) is reported as “not completely reversed”. For the same compound, the “reversal of the positive inotropic response to serotonin” value (shortened to “reversal … to serotonin”) (5-HT4 receptor [2]) was “reversed”, the pKi (5-HT4 receptor [3]) was 9.2-9.7 and the “reversal … to serotonin” value (5-HT4 receptor [4]) was “reversed”. The “reversal … to serotonin” value (5-HT4 receptor [5]) was “reversed”.
